Test results: ChEMBL document CHEMBL4014354, “2'-Chloro,2'-fluoro Ribonucleotide Prodrugs with Potent Pan-genotypic Activity against Hepatitis C Virus Replication in Culture” (J Med Chem, 2017)

Columns and labels:
[1] = Inhibition of C-terminal His-tagged HCV genotype 1b NS5Bdelta21 expressed in Escherichia coli BL21 (DE3) using synthetic 20mer RNA/[32P]GpG as template/primer after 90 mins by PAGE analysis; set-up: species or system Hepatitis C virus subtype 1b
[2] = Inhibition of HCV genotype 1b NS5B S96T mutant; set-up: species or system Hepatitis C virus subtype 1b
[3] = Inhibition of wild type HCV genotype 2a NS5B; set-up: species or system Hepatitis C virus subtype 2a
[4] = Inhibition of wild type HCV genotype 4a NS5B; set-up: species or system Hepatitis C virus subtype 4a
[5] = Inhibition of RNA polymerase 2 isolated from human HeLa cell nuclear extract assessed as decrease in incorporation of P32-alpha-CTP after 2 hrs by scintillation counting method; type: cell-free
[6] = biological target: DNA-directed RNA polymerase, mitochondrial (Homo sapiens) (UniProt O00411); test: Inhibition of human POLRMT using 5'-P32-RNA/DNA hybrid assessed as incorporation of UTP at 100 uM after 2 hrs by scintillation counting method relative to control; set-up: scale not given: the % may be the effect or the level left
[7] = biological target: T1, DNA polymerase alpha catalytic subunit (Homo sapiens, UniProt P09884); test: Inhibition of human DNA polymerase alpha using 5' end radiolabeled 24nt DNA/48nt DNA as primer/template after 5 mins by PAGE analysis
T1 sequence (P09884 whole entry): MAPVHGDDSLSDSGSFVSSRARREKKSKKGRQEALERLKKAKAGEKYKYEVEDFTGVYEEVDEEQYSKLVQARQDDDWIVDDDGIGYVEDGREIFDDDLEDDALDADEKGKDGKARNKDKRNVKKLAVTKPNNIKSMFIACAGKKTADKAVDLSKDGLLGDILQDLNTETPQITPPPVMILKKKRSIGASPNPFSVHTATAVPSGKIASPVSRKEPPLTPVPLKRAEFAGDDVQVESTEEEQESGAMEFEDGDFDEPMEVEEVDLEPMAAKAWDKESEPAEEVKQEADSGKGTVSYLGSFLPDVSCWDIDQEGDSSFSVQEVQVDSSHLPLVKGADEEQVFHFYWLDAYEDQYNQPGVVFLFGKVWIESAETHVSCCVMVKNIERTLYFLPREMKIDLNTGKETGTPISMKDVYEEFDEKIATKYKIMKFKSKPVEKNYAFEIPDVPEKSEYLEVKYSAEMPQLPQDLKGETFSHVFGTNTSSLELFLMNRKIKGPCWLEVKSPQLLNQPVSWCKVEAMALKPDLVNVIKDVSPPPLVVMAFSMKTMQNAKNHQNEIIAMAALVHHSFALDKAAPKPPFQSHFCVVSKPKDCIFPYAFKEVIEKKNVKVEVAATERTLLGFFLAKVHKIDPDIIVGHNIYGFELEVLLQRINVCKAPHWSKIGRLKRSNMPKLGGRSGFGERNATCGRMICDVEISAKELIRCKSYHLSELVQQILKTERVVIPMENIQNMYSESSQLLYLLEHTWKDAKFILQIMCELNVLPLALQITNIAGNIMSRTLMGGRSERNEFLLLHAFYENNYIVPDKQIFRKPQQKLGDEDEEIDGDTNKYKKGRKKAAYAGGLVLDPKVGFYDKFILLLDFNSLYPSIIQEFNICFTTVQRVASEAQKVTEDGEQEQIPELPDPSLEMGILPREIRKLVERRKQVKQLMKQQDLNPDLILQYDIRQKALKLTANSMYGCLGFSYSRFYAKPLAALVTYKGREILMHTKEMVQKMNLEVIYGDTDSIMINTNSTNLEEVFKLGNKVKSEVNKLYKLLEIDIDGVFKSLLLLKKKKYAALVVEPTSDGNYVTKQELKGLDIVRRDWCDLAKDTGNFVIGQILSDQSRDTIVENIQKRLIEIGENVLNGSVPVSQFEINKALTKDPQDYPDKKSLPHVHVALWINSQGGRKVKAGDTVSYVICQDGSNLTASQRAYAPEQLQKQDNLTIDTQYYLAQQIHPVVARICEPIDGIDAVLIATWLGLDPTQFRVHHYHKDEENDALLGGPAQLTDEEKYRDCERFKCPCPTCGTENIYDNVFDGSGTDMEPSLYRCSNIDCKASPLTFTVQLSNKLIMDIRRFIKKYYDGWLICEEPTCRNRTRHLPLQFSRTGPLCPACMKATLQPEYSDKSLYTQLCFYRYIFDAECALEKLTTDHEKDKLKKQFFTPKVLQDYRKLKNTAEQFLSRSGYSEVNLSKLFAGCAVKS

DNA polymerase beta = DNA polymerase beta (Homo sapiens, UniProt P06746); test: Inhibition of human DNA polymerase beta using 5' end radiolabeled 24nt DNA/48nt DNA as primer/template after 5 mins by PAGE analysis
[8] = Inhibition of human DNA polymerase gamma using 5' end radiolabeled 24nt DNA/36nt DNA as primer/template after 120 mins by PAGE analysis
Hepatitis C virus [9] = test: Antiviral activity against HCV genotype 1b harboring wild type NS5B infected in human HuH7 cells assessed as inhibition of viral RNA replication after 5 days by RT-PCR method; type: functional, cell-based, Hepacivirus hominis; settings: Huh-7, 120 h
[10] = Cytotoxicity against human HuH7 cells assessed as inhibition of cell proliferation after 4 days by MTS assay; type: cell-based, Huh-7
[11] = Cytotoxicity against human PBMC assessed as inhibition of cell proliferation after 5 days by MTT assay; type: cell-based
[12] = Cytotoxicity against human CEM cells assessed as inhibition of cell proliferation after 4 days by MTT assay; type: cell-based, CCRF-CEM
[13] = Cytotoxicity against African green monkey Vero cells assessed as inhibition of cell proliferation after 3 days by MTT assay; type: cell-based; settings: chlorocebus sabaeus
Hepatitis C virus [14] = test: Antiviral activity against HCV genotype 1a infected in human HuH7 cells assessed as inhibition of viral RNA replication after 96 hrs by RT-PCR method; type: functional, cell-based, Hepacivirus hominis; settings: subtype 1a, Huh-7, 96 h
Hepatitis C virus [15] = test: Antiviral activity against HCV genotype 1b infected in human HuH7 cells assessed as inhibition of viral RNA replication after 96 hrs by RT-PCR method; type: functional, cell-based, Hepacivirus hominis; settings: Huh-7, 96 h
Hepatitis C virus [16] = test: Antiviral activity against HCV genotype 2a/k infected in human HuH7 cells assessed as inhibition of viral RNA replication after 96 hrs by RT-PCR method; type: functional, cell-based, Hepacivirus hominis; settings: Huh-7, 96 h
Hepatitis C virus [17] = test: Antiviral activity against HCV genotype 2b infected in human HuH7 cells assessed as inhibition of viral RNA replication after 96 hrs by RT-PCR method; type: functional, cell-based, Hepacivirus hominis; settings: Huh-7, 96 h
Hepatitis C virus [18] = test: Antiviral activity against HCV genotype 3a infected in human HuH7 cells assessed as inhibition of viral RNA replication after 96 hrs by RT-PCR method; type: functional, cell-based, Hepacivirus hominis; settings: Huh-7, 96 h
Hepatitis C virus [19] = test: Antiviral activity against HCV genotype 4 infected in human HuH7 cells assessed as inhibition of viral RNA replication after 96 hrs by RT-PCR method; type: functional, cell-based, Hepacivirus hominis; settings: genotype 4, Huh-7, 96 h
Hepatitis C virus [20] = test: Antiviral activity against HCV genotype 1b harboring NS5B S282T mutant infected in human HuH7 cells assessed as inhibition of viral RNA replication after 4 days by luciferase reporter gene assay; type: functional, cell-based, Hepacivirus hominis; settings: Huh-7, 96 h
Hepatitis C virus [21] = test: Selectivity ratio of EC50 for HCV genotype 1b harboring NS5B S282T mutant to EC50 for HCV genotype 1b harboring wild type NS5B; type: functional, Hepacivirus hominis
Hepatitis C virus [22] = test: Selectivity ratio of EC90 for HCV genotype 1b harboring NS5B S282T mutant to EC90 for HCV genotype 1b harboring wild type NS5B; type: functional, Hepacivirus hominis
[23] = system: cytochrome c oxidase subunit 2 DNA (mitochondrial DNA) levels; test: Mitochondrial toxicity in human HepG2 cells assessed as inhibition of cytochrome c oxidase subunit 2 DNA levels at 50 uM measured on day 14 by RT-PCR method relative to nuclear beta-actin DNA levels; type: cell-based
nuclear DNA levels [24] = test: Cytotoxicity against human HepG2 cells assessed as inhibition of nuclear DNA levels at 50 uM measured on day 14 by RT-PCR method relative to nuclear beta-actin DNA levels; type: cell-based; settings: read-out: INH
[25] = system: cytochrome c oxidase subunit 2 DNA (mitochondrial DNA) levels; test: Mitochondrial toxicity in human HepG2 cells assessed as inhibition of cytochrome c oxidase subunit 2 DNA levels measured on day 14 by RT-PCR method; type: cell-based
HepG2 [26] = test: Cytotoxicity against human HepG2 cells assessed as inhibition of nuclear DNA levels measured on day 14 by RT-PCR method; settings: HepG2, 336 h
HepG2 [27] = test: Mitochondrial toxicity in human HepG2 cells assessed as cytochrome c oxidase subunit 2 DNA levels at 10 uM measured on day 14 by RT-PCR method relative to nuclear beta-actin DNA levels; settings: hepg2, 10 µM
HepG2 [28] = test: Mitochondrial toxicity in human HepG2 cells assessed as cytochrome c oxidase subunit 2 DNA levels at 50 uM measured on day 14 by RT-PCR method relative to nuclear beta-actin DNA levels; type: cell-based; settings: hepg2, 50 µM
Cytochrome P450 3A4 = Cytochrome P450 3A4 (Homo sapiens, UniProt P08684); test: Inhibition of human CYP3A4 using ketoconazole […]; type: ADME
Cytochrome P450 2C9 = Cytochrome P450 2C9 (Homo sapiens, UniProt P11712); test: Inhibition of human CYP2C9 using sulfaphenazole […]; type: ADME
Cytochrome P450 1A2 = biological target: T2, Cytochrome P450 1A2 (Homo sapiens, UniProt P05177); test: Inhibition of human CYP1A2 using alpha-naphthoflavone […]; type: ADME
T2 sequence (P05177 whole entry): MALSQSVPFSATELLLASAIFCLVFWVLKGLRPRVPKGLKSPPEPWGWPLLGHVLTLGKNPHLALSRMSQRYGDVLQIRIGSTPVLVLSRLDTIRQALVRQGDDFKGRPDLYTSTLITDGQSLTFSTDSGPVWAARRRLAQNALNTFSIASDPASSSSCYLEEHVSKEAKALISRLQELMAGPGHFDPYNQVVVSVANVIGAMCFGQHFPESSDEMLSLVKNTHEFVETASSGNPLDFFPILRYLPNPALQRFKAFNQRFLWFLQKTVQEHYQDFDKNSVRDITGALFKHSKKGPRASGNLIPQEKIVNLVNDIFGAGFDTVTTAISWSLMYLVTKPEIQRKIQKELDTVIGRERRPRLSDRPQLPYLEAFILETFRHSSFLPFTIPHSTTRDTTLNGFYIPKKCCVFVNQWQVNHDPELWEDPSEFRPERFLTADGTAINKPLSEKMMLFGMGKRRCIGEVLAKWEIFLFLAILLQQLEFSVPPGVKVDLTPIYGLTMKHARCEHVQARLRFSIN

Cytochrome P450 2D6 = Cytochrome P450 2D6 (Homo sapiens, UniProt P10635); test: Inhibition of human CYP2D6 using quinidine […]; type: ADME
[29] = system: cytochrome c oxidase subunit 2 DNA (mitochondrial DNA) levels; test: Mitochondrial toxicity in human HepG2 cells assessed as inhibition of cytochrome c oxidase subunit 2 DNA levels at 25 uM measured on day 14 by RT-PCR method relative to nuclear beta-actin DNA levels; type: cell-based
nuclear DNA levels [30] = test: Cytotoxicity against human HepG2 cells assessed as inhibition of nuclear DNA levels at 25 uM measured on day 14 by RT-PCR method relative to nuclear beta-actin DNA levels; type: cell-based; settings: read-out: INH
HepG2 [31] = test: Mitochondrial toxicity in human HepG2 cells assessed as cytochrome c oxidase subunit 2 DNA levels at 25 uM measured on day 14 by RT-PCR method relative to nuclear beta-actin DNA levels; type: cell-based; settings: hepg2, 25 µM
[32] = system: cytochrome c oxidase subunit 2 DNA (mitochondrial DNA) levels; test: in vitro; settings: human, HepG2 cells
nuclear DNA levels [33] = test: in vitro; settings: human, HepG2 cells

Cytochrome P450 3A4, sequence (P08684 whole entry): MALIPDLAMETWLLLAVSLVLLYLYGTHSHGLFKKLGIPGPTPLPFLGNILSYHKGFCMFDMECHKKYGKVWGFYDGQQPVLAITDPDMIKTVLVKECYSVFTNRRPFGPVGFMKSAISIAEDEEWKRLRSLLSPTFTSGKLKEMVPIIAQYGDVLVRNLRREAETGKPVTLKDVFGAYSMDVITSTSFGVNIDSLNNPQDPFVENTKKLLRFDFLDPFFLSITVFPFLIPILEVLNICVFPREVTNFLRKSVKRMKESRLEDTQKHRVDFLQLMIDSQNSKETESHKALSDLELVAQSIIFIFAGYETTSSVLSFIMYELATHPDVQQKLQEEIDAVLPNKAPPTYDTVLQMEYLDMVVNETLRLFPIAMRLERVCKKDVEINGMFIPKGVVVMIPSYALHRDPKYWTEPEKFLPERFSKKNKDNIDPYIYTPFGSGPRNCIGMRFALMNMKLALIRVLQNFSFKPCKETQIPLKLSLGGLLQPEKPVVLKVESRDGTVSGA
Cytochrome P450 2D6, sequence (P10635 whole entry): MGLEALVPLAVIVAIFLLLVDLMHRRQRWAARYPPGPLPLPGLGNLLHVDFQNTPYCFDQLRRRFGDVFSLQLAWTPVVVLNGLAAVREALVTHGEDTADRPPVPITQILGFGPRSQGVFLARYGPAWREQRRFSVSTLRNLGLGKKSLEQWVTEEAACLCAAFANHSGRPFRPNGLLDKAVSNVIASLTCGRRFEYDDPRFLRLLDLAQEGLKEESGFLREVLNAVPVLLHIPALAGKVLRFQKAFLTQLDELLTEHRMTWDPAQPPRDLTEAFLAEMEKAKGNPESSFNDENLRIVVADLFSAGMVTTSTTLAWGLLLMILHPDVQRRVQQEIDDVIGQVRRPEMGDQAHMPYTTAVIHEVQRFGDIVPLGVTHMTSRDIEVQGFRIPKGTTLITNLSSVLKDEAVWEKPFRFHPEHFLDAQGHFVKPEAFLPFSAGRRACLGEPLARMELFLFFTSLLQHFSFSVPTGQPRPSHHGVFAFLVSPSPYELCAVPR
Cytochrome P450 2C9, sequence (P11712 whole entry): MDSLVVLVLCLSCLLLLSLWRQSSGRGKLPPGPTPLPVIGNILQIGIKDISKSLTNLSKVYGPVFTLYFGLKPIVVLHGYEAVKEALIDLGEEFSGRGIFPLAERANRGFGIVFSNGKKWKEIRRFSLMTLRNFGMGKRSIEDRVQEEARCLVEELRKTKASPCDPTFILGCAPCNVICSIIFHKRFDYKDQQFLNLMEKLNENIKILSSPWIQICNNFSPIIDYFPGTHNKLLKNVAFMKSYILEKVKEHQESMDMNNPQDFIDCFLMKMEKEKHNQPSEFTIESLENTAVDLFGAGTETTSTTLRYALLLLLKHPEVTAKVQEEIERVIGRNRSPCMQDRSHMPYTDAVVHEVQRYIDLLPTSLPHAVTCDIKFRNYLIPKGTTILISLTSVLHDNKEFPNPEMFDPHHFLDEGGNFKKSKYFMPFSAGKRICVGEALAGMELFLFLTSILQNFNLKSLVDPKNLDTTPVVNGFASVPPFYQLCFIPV
DNA-directed RNA polymerase, mitochondrial (Homo sapiens), sequence (O00411 whole entry): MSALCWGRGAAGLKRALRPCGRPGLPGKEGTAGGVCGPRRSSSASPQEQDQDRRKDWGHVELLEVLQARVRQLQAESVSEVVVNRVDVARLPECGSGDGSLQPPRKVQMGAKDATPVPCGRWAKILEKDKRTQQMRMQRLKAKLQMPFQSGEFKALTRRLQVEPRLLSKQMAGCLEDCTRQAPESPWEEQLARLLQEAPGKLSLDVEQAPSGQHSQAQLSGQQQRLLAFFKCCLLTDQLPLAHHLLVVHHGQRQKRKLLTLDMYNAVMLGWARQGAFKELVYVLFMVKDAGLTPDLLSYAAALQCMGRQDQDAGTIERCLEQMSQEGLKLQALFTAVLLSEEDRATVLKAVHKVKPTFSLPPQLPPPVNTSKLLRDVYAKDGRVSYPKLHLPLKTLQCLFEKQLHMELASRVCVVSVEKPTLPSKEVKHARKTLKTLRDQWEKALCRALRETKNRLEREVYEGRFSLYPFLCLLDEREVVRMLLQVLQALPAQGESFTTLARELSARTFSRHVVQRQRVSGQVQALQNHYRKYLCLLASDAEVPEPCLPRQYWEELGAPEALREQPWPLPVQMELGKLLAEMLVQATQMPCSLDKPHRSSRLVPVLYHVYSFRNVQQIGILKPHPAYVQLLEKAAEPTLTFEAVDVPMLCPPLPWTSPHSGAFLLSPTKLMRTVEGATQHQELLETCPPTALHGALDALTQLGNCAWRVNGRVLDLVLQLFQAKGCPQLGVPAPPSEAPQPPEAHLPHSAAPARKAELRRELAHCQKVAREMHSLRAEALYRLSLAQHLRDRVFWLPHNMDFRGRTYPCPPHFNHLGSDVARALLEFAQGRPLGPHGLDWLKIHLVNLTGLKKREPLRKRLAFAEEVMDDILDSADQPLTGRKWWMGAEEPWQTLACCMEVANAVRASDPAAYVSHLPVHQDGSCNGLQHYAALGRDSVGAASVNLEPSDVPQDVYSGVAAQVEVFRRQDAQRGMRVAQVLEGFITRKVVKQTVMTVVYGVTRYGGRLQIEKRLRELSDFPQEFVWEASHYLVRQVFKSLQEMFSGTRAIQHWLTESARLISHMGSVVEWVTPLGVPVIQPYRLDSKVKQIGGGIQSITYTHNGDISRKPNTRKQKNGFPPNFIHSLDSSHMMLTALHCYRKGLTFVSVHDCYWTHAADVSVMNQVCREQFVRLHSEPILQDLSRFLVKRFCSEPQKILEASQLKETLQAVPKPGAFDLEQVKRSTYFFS

## O=c1ccn([C@@H]2O[C@H](COP(=O)(O)OP(=O)(O)OP(=O)(O)O)C(O)C2(F)Cl)c(=O)[nH]1 (single isomer, unassigned)
[1]
  IC50: 5.5 µM
[2]
  IC50: 13 µM
[3]
  IC50: 6.1 µM
[4]
  IC50: 8.6 µM
[5]
  IC50: > 100 µM
[6]
  Activity: 35%
[7]
  IC50: 20.2 µM
DNA polymerase beta
  IC50: > 100 µM
[8]
  IC50: > 100 µM

## CC(C)OC(=O)[C@H](C)N[P@](=O)(OC[C@H]1O[C@@H](n2ccc(=O)[nH]c2=O)[C@](C)(F)[C@@H]1O)Oc1ccccc1 [SOFOSBUVIR]
Hepatitis C virus [9]
  EC50: 0.09 to 0.2 µM
  EC90: 0.3 to 0.5 µM
[10]
  CC50 at 96 h: > 10 µM
[11]
  CC50 at 120 h: > 100 µM
[12]
  CC50 at 96 h: > 100 µM
[13]
  CC50 at 72 h: > 100 µM
Hepatitis C virus [14]
  IC50: 0.06 µM
Hepatitis C virus [15]
  IC50: 0.06 µM
Hepatitis C virus [16]
  IC50: 0.02 µM
Hepatitis C virus [17]
  IC50: 0.04 µM
Hepatitis C virus [18]
  IC50: 0.09 µM
Hepatitis C virus [19]
  IC50: 0.07 µM
Hepatitis C virus [20]
  EC50: 0.4 µM
  EC90: 1 µM
Hepatitis C virus [21]
  Ratio EC50: 4.4
Hepatitis C virus [22]
  Selectivity ratio: 3
[23]
  inhibition at 14 days, 50 µM: < 1%
Nuclear DNA levels [24]
  cytotoxicity at 14 days, 50 µM: 38.8%
[25]
  IC50 at 14 days: > 50 µM
HepG2 [26]
  IC50: > 50 µM
HepG2 [27]
  Activity: 176%
HepG2 [28]
  Activity: 255%
Cytochrome P450 3A4
  IC50: 8.4 µM
Cytochrome P450 2C9
  IC50: 60 µM
Cytochrome P450 1A2
  IC50: > 100 µM
Cytochrome P450 2D6
  IC50: > 100 µM
[29]
  inhibition at 14 days, 25 µM: < 1%
Nuclear DNA levels [30]
  cytotoxicity at 14 days, 25 µM: 38.3%
HepG2 [31]
  Activity: 187%
[32]
  inhibition at 14 days, 10 µM: < 1%
Nuclear DNA levels [33]
  cytotoxicity at 14 days, 10 µM: 7.3%
